Assay results from US9284345B2 (priority 2007, dated 2016).

Legend:
[1] = tested on: Shionogi mouse mammary carcinoma cells; assay: cells; assay type: cell-based
[2] = molecular target: T1, Human Androgen Receptor (Homo sapiens, UniProt P10275); assay type: binding
T1 construct: expressed in transfected cells; host or cells: HEK-293 cells stably transfected with the pCMVneo-hAR plasmid (G-418 selection); cytosol used
T1 sequence (P10275 1-920): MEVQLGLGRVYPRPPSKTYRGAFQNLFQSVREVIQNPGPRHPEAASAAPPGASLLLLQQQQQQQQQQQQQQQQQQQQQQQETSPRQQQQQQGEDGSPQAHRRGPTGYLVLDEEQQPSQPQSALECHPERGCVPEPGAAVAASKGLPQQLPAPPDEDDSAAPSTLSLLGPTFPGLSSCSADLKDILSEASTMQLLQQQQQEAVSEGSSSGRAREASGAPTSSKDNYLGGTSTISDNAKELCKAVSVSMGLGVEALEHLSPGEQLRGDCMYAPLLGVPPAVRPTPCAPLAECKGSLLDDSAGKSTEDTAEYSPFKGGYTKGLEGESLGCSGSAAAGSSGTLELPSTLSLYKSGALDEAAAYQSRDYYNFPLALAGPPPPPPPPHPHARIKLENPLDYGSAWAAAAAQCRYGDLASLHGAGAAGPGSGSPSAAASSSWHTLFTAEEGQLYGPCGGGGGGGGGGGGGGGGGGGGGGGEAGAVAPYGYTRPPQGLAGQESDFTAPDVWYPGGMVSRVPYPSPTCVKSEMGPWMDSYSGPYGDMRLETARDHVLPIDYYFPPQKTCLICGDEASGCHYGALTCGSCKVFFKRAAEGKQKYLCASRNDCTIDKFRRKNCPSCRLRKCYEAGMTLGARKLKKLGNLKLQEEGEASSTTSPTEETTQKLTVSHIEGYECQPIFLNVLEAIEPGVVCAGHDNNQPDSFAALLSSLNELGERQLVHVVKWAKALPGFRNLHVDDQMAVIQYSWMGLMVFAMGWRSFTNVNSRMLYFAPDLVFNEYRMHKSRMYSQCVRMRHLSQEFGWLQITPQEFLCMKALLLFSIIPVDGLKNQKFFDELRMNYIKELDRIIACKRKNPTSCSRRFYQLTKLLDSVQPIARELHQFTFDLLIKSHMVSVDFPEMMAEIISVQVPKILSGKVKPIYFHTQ

[3] = tested on: Immature Rat CX
[4] = tested on: Immature Rat CX + DHT; assay: animal or person; assay type: in vivo; settings: rat, in vivo, po
[5] = tested on: Intact Rat; assay: In vivo activity in intact rat (organ and muscle weight); settings: rat, in vivo
[6] = tested on: androgen receptor; assay: Antiandrogen / SARM / androgen profile observed on structural change; settings: structure-activity observation in estratriene derivatives
Source text: Preferred positions on the steroid to this change in activities are 3, 4, 11β, 16 and 17α. […] Moreover, when we changed the 4-fluoro by a 4-chloro on EM-6583, we obtained a pure androgen (EM-5697). Similarly, when we increased the size of the chain at 17α-position on (1,4-phenylene as a spacer group), EM-8419 became a SARM. Again, when we changed the 4-fluoro by a 4-chloro on EM-8419, we obtained a pure androgen (EM-5313).
We also believed that a larger size increase could reverse the observed tendency (androgen to SARM or antiandrogen). Thus, it is not obvious to make good predictions of the biological activity of this compound family but some trends are observable.

[7] = in vivo

CC12CCC3c4ccc(C#N)c(F)c4CCC3C1CCC2(O)Cc1ccc(-c2ccc[n+]([O-])c2)cc1 (stereo not drawn) [EM-8419]
% of stim of basal at 10^−7M (% over basal) [1]: +94 ± 17%
% of stim of basal at 10^−7 M (DHT = 100%) [1]: +62 ± 11%
% of inh of DHT at 10^−7 M (Basal = 100%) ([1]; 0.0003 µM): +21 ± 11%
Human Androgen Receptor Binding RBA (%) R1881 = 100% [2]: 83 ± 35%
In Vivo Agonist Rat CX % change vs CX (DHT CONT = +100%) Bulbo [3]: +115 ± 4%
In Vivo Agonist Rat CX % change vs CX (DHT CONT = +100%) SV [3]: +26 ± 2%
In Vivo Agonist Rat CX % change vs CX (DHT CONT = +100%) VP [3]: +39 ± 6%
In Vivo Anti-A Rat CX + DHT % change vs DHT (CX CONT = −100%) Bulbo [4]: +36 ± 11%
In Vivo Anti-A Rat CX + DHT % change vs DHT (CX CONT = −100%) SV [4]: −33 ± 7%
In Vivo Anti-A Rat CX + DHT % change vs DHT (CX CONT = −100%) VP [4]: −36 ± 0%
In Vivo Intact Rat % change vs Intact CONT (Intact CONT = +100%; CX CONT = 0%) Bulbo [5]: +238 ± 12%
In Vivo Intact Rat % change vs Intact CONT (Intact CONT = +100%; CX CONT = 0%) SZ [5]: +76 ± 2%
In Vivo Intact Rat % change vs Intact CONT (Intact CONT = +100%; CX CONT = 0%) VP [5]: +89 ± 5%
activity profile (antiandrogen, SARM or androgen) [6]: became a SARM
AUC 24 h 0.5 mg/rat oral [7]: 5725 ± 595 ng·h/mL
